Measurements taken from patent publication US9649389B2, “Substituted silaxanthenium red to near-infrared fluorochromes for in vitro and in vivo imaging and detection” (VisEn Medical, Inc., priority 2013, dated 2017).
One block for each molecule: values may come before it.

Columns and labels:
[1] = Absorption and emission maxima of two isomeric thienyl dyes; assay type: physicochemical
Method: (§1) Two isomeric thienyl Si-Rho dyes 88 and 89, were synthesized using the methods described previously. The two isomeric compounds, which are of identical molecular weight and molecular formula, have absorption and emission maxima of 652 nm and 668 nm (88) and 667 nm and 681 nm (89). Compounds were analyzed with two different filter sets by flow cytometry and also by fluorescence microscopy for cellular uptake and washout. Trypsin EDTA-detached 4T1 at 0.5 mil cells/mL culture medium were incubated with 1 uM 88 or 89 for 30 min at 37° C. Cells were washed 1× with PBS and analyzed by flow cytometry with a 705/70 nm emission filter for 88 and a 712/21 nm emission filter for 89 and by fluorescence microscopy.

4T1 cells = test: Cellular uptake and washout by flow cytometry and fluorescence microscopy; assay type: cell-based; conditions: for cellular uptake: 1 uM, 30 min, 37° C.; for dye still remaining after washout: 1.5 h washout, flow cytometry
Method: as §1

[2] = In vivo tomographic imaging (FMT 2500) after intravenous injection; conditions: 2 nmoles intravenous, SKH-1 E female mice
Method: Two SKH-1 E female mice (9 weeks old) were injected with 2 nmoles of compound 44. Tomographic images of the whole body of the mouse were taken at 1, 15, 30 and 45 minutes and 1, 2 and 3 hours.

[3] = Optical properties of silaxanthenium fluorochromes (absorption/emission maxima, relative brightness); assay type: physicochemical; conditions: for Abs. λmax / Em. Λmax: 1×PBS, 1 cm square cuvette; for Relative Fluorescence: brightness (fluorescence intensity / absorption at λmax) normalized to CY1, 1×PBS
Excerpt: The relative brightness is defined by the fluorescence intensity of a solution of the fluorochrome in a 1 cm square cuvette when excited at its wavelength of maximum absorption divided by the absorption of the same sample at the wavelength of maximum absorption. The three examples shown with a S atom in the X position of Formula II are red shifted about 20 nm relative to three examples with the S atom in the Y or Z positions.
This example summarizes in Table 3 the absorption and emission characteristics of some exemplary silaxanthenium (SX) fluorochromes relative to a cell impermeable cyanine dye (sulfonated Cy5 analog) CY1. Absorption and emission characteristics were measured in 1×PBS in a 1 cm square cuvette. Relative fluorescence (brightness) was measured as in Example 8 and normalized to that of compound CY1.

chymotrypsin = test: Fluorescence activation of internally quenched probe upon protease cleavage; assay type: biochemical; conditions: 1×PBS, 37° C., 4 h
Excerpt: FIG. 6A illustrates fluorescence activation upon enzyme cleavage of an internally quenched pair of silaxanthenium fluorochromes separated by an enzyme cleavable peptide sequence (Compound 78). Compound 78 was synthesized by conjugating two carboxylic acid dyes to lysine side chain amines in the peptide sequence using HATU and triethylamine. The quenched probe was purified by HPLC. Absorbance and fluorescence, measured on a Cary 50 UV-vis spectrophotometer (Varian) and a Cary Eclipse fluorescence spectrophotometer, respectively, of the quenched (dashed lines) and activated (cleaved by chymotrypsin in 1×PBS, solid lines) fluorochromes are shown in FIG. 6B.
A 22-fold increase in fluorescence intensity was observed. […] Trypsin EDTA-detached 4T1 were seeded in a 6-well tissue culture plate at 0.5 mil cells/2 mL of culture medium were incubated with 1 or 5 uM of 92, 93, or 91 for 21 h at 37° C. Cells were washed 1× with PBS, detached, and analyzed by FC and FLM (Cy5 filter). […] Trypsin EDTA-detached 4T1 cells were implanted 1.5 mil/site approximately 1 week prior to imaging. 92 was injected retro-orbitally at 4 nmol and imaged by FMT at 5 and 24 h.

KB cells = test: Cell uptake of glucosamine conjugated SX compound by fluorescence microscopy and flow cytometry; assay type: cell-based; conditions: 30 μM, 30 minutes
Method: This example illustrates cell uptake of a biomolecule (glucosamine) conjugated SX compound, compound 67 in KB cells. KB cells were cultured in media for 2 h then incubated with 30 μM of compound 67 for 30 minutes before analysis of the cells by fluorescence microscopy and flow cytometry with appropriate filter sets for the two different fluorescent dyes. As a control, cells were also incubated with the commercial fluorescent glucosamine derivative 2-NBDG also at 30 μM.

Structure (SMILES): CN(C)c1ccc2c(c1)[Si](C)(C)c1cc(N(C)C)ccc1[C+]2c1ccsc1 [Compound 88]
absorption maximum [1]: 652 nm | emission maximum [1]: 668 nm | cellular uptake (4T1 cells): Significant uptake | dye still remaining after washout (4T1 cells): approximately one third

Structure (SMILES): Cc1cc(C(=O)O)ccc1C1=C2C=CC(=[N+]3CCCC3)C=C2[Si](C)(C)c2cc(N3CCCC3)ccc21 [Compound 44, 3,6-bis(pyrridolin-1-yl)-9-(2-methyl-4-carboxyphenyl)-10,10-dimethyl-10-silaxanthenium]
wash out of the untargeted compound [2]: ≤ 3 h | biodistribution by tomographic imaging ([2]; imaged 1 minute to 3 hours): Rapid accumulation of the fluorochrome compound can be seen in the heart region followed by slower accumulation to other areas of the body | Abs. λmax [3]: 655 nm | Em. Λmax [3]: 669 nm | Relative Fluorescence [3]: 1.54

Structure (SMILES): Cc1c(C2=C3C=CC(=[N+](C)C)C=C3[Si](C)(C)c3cc(N(C)C)ccc32)csc1C(=O)O [Compound 18, 3,6-bis(dimethylamino)-9-(2-carboxy-3-methyl-thien-4-yl)-10,10-dimethyl-10-silaxanthenium chloride]
Abs. λmax [3]: 653 nm | Em. Λmax [3]: 668 nm | Relative Fluorescence [3]: 1.02

Structure (SMILES): Cc1csc(C(=O)O)c1C1=C2C=CC(=[N+](C)C)C=C2[Si](C)(C)c2cc(N(C)C)ccc21 [Compound 17, 3,6-bis(dimethylamino)-9-(2-carboxy-4-methyl-thien-3-yl)-10,10-dimethyl-10-silaxanthenium chloride]
Abs. λmax [3]: 649 nm | Em. Λmax [3]: 666 nm | Relative Fluorescence [3]: 1.11

Structure (SMILES): CN(C)c1ccc2c(c1)[Si](C)(C)C1=CC(=[N+](C)C)C=CC1=C2c1ccc(C(=O)O)s1 [Compound 65, 3,6-bis(dimethylamino)-9-(2-carboxy-thien-5-yl)-10,10-dimethyl-10-silaxanthenium chloride]
Abs. λmax [3]: 669 nm | Em. Λmax [3]: 683 nm | Relative Fluorescence [3]: 0.05

Structure (SMILES): CC(C)C[C@@H](NC(=O)[C@@H](Cc1ccccc1)NC(=O)CNC(=O)[C@@H](CCCCNC(=O)c1cc(C2=C3C=CC(=[N+](C)C)C=C3[Si](C)(C)c3cc(N(C)C)ccc32)c(C(=O)[O-])s1)NC(=O)CCC(=O)O)C(=O)NCC(=O)N[C@H](CCCCNC(=O)c1cc(C2=C3C=CC(=[N+](C)C)C=C3[Si](C)(C)c3cc(N(C)C)ccc32)c(C(=O)[O-])s1)C(N)=O [Compound 91]
increase in fluorescence intensity (chymotrypsin): 22 fold

Structure (SMILES): CN(C)c1ccc2c(c1)[Si](C)(C)c1cc(N(C)C)ccc1[C+]2c1cccs1 [Compound 89]
absorption maximum [1]: 667 nm | emission maximum [1]: 681 nm | cellular uptake (4T1 cells): Significant uptake | dye still remaining after washout (4T1 cells): approximately one third

Structure (SMILES): Cc1c(C(=O)O)sc(C2=C3C=CC(=[N+](C)C)C=C3[Si](C)(C)c3cc(N(C)C)ccc32)c1Br [Compound 66]
red shift ([3]; relative to compound 17 (S moved from Z to X position, bromine substituent added)): 23 nm

Structure (SMILES): O=[N+]([O-])c1ccc(N[C@H]2C(O)O[C@H](CO)[C@@H](O)[C@@H]2O)c2nonc12 (stereo partly shown) [Compound 2-NBDG, reference compound]
cell uptake (KB cells): taken up by the cells | quantification of cell fluorescence by flow cytometry (KB cells): in normal analysis range

Abs. λmax [3]: 650 nm | Em. Λmax [3]: 666 nm | Relative Fluorescence [3]: 1.20
Structure (SMILES): Cc1ccccc1C1=C2C=CC(=[N+](C)C)C=C2[Si](C)(C)c2cc(N(C)C)ccc21 [Compound 77]

Structure (SMILES): Cc1cc(C(=O)N[C@@H]2[C@@H](O)[C@H](O)[C@@H](CO)O[C@@H]2O)ccc1C1=C2C=CC(=[N+]3CCCC3)C=C2[Si](C)(C)c2cc(N3CCCC3)ccc21 [Compound 67]
cell uptake (KB cells): taken up by the cells | quantification of cell fluorescence by flow cytometry (KB cells): detector saturation

Structure (SMILES): Cc1cc(C(=O)O)ccc1C1=C2C=CC(=[N+]3CCOCC3)C=C2[Si](C)(C)c2cc(N3CCOCC3)ccc21 [Compound 45, 3,6-bis(morpholino)-9-(2-methyl-4-carboxyphenyl)-10,10-dimethyl-10-silaxanthenium]
Abs. λmax [3]: 651 nm | Em. Λmax [3]: 670 nm | Relative Fluorescence [3]: 0.75
